Assays:
[1] = test system: motor activity of the rat; test: Effects on the motor activity of the rat; format: in vivo; conditions: i.p., first half hour after administration
Experimental: Utilizing these preliminary goods results, the effects of said compounds were studied on the rats motor activity. This experiment permits to obtain a more objective evaluation about the effectiveness of the tested molecules, confirming and specifying the effective dosages, start and duration of the effects.
For these tests too, rats were subdvided into two groups: a control group of rats treated with the solvent and a positive control group consisting of rats treated i.p. with 300 mg/kg/2 ml GHB sodium salt in the aforesaid solvent.
GHB was systematically used as a reference: when administered at the above doses its motor reducing action spans a wide variation range.
Table 3—Effects on the Motor Activity Produced by Some Benzylamido Derivatives of GHB Compared With a 300 mg/kg Dose of GHB (Sedative Dose)
The following table reports data referred to the first half hour after administration. The per cent decreases in motor activity in respect of GHB are reported.

rats = test: General neuropharmacological profile: behaviour observation (excitation, bursts, sedation) after i.p. administration; format: in vivo; conditions: rat; for Neuropharmacological profile: different dosage levels; for Potency compared with GHB / Duration of action compared with GHB: excitatory effects
Experimental: The tests, which were intended to evaluate the neuropharmacological activity of the amides of the invention, were conducted on rats, because most of the data available in the literature concern said animal species.
The time at which the effects started, their intensity and duration were recorded.
Molecules were evaluated by systematically using a control group, in which rats had been treated with the utilized solvent, and a positive control group, in which rats had been treated intraperitoneally (i.p.) with a standard dose of GHB sodium salt (100 mg/kg) in 2 ml. GHB and the assayed amides were administered in 50% DMSO in distilled water.
Said dose of drug, used as a reference, produced typical excitatory effects, characterized by the onset of generic excitation accompanied by more particular paroxysms, the so-called BURSTS of excitation.
Generic excitation was characterized by an increased motor activity, extremely sharp and jerky movements, higher reactivity and shakes.
“Bursts” of excitation were typical and well recognizable: the animals fought and frantically pursued each other.
Recordings concerned the number of “bursts”, the time of their onset after treatment, their intensity, the partial or total involvement of treated animals, the duration of the single episodes.
The sedation produced by higher doses of the molecules examined was evaluated analogously: time of onset, degree of sedation, partial or total involvement, duration of the effects.
Table 2—General Neuropharmacological Profile of Benzylamido Derivatives of GHB Compared With a 100 mq/kg Dose of GHB (Excitatory Dose)

[2] = cited from earlier work

Compound	< % (per cent decrease in motor activity) ([1]; dose 300 mg/kg) [%]	Neuropharmacological profile (rats)	Excitatory effects Duration (rats; dose 25-50 mg/kg) [min]	Excitatory effects Start (rats; dose 25-50 mg/kg) [min]	Potency compared with GHB (rats)	< % (per cent decrease in motor activity) ([1]; dose 100 mg/kg) [%]	further results
CCCNC(=O)CCCO [Compound 2)]	82	–	–	–	–	–	–
Nc1ccc(CNC(=O)CCCO)cc1 [Compound 3)]	–	biphasic neuropharmacological profile	60	30	more powerful than GHB	–	–
O=C(CCCO)NCc1ccc(Cl)cc1 [Compound 4)]	80	–	–	–	–	0	Excitatory effects Duration (rats; dose 50-100 mg/kg): 45 min; Excitatory effects Start (rats; dose 50-100 mg/kg): 30 min
Cc1ccc(CNC(=O)CCCO)cc1 [Compound 5)]	77	biphasic neuropharmacological profile	–	–	–	–	Potency (dose) and duration of action compared with GHB (rats): substantially superimposable to GHB acid; Dosage required for excitatory effects (rats; GHB reference excitatory dose 100 mg/kg): 100 mg/kg; Excitatory effects Start (rats; dose 100 mg/kg): 20 min
COc1ccc(CNC(=O)CCCO)cc1 [Compound 6)]	57	–	45	45	–	–	–
COCCCC(=O)NCc1ccc(C)cc1 [Compound 7)]	–	biphasic neuropharmacological profile	–	20	more powerful than GHB	76	Potency (dose) and duration of action compared with GHB (rats): better than those of GHB; Duration of action compared with GHB (rats): longer duration of action
COc1cc(CNC(=O)CCCO)cc(OC)c1 [Compound 8)]	68	–	–	–	–	–	Excitatory effects Duration (rats; dose 100 mg/kg): 30 min; Excitatory effects Start (rats; dose 100 mg/kg): 60 min
O=C(CCCO)NCc1cccnc1 [Compound 9)]	72	–	–	–	–	–	Excitatory effects Duration (rats; dose 100 mg/kg): 15 min; Excitatory effects Start (rats; dose 100 mg/kg): 60 min; < % (per cent decrease in motor activity) ([1]; dose 100-200 mg/kg): 0%
COCCCC(=O)NCc1ccccc1 [Compound 10)]	–	biphasic neuropharmacological profile	30	20	more powerful than GHB	42	–
COCCCC(=O)NCc1ccc(Cl)cc1 [Compound 11)]	–	biphasic neuropharmacological profile	60	20	more powerful than GHB	70	–
CCOCCCC(=O)NCc1ccc(C)cc1 [Compound 12)]	–	biphasic neuropharmacological profile	30	60	more powerful than GHB	54.5	–
CCCOCCCC(=O)NCc1ccc(C)cc1 [Compound 13)]	–	biphasic neuropharmacological profile	–	–	–	58	Excitatory effects Duration (rats; dose 100 mg/kg): 30 min; Excitatory effects Start (rats; dose 100 mg/kg): 45 min
COCCCC(=O)NCc1cccc2ccccc12 [Compound 14)]	–	biphasic neuropharmacological profile	180	30	more powerful than GHB	75	Potency (dose) and duration of action compared with GHB (rats): better than those of GHB; Duration of action compared with GHB (rats): longer duration of action; < % (per cent decrease in motor activity) ([1]; dose 50 mg/kg): 65%
COCCCC(=O)NCc1ccc(C(F)(F)F)cc1 [Compound 15)]	–	biphasic neuropharmacological profile	–	20	more powerful than GHB	–	Potency (dose) and duration of action compared with GHB (rats): better than those of GHB; Duration of action compared with GHB (rats): longer duration of action; < % (per cent decrease in motor activity) ([1]; dose 25-50 mg/kg): 64%
O=C(O)CCCO [GHB, γ-hydroxybutyric acid]	–	causes excitation at relatively low doses and sedation at higher doses	–	–	–	–	Duration of action (excitatory effects) (rats; GHB reference): 1 h; Maximum concentration peak, time after administration ([2]; absorption by the gastroenteric apparatus): 35 to 40 min; Half-life time ([2]; in vivo): 20 to 25 min

Reference: patent US6770784B2, “Use of γ-hydroxybutyric acid amides in the treatment of drug addiction and in particular of alcoholism” (Laboratorio Farmaceutico C.T. S.r.l., priority 1996, dated 2004)
